Data taken from PMC3907690 (FEBS Open Bio, 2014).

How the values were obtained:
WalKc(PH) = WalKc(PH) (Bacillus anthracis, UniProt A0A6H3AEB6)
WalKc(H) = WalKc(H) (Bacillus anthracis, UniProt A0A6H3AEB6)
WalKc = WalKc (Bacillus anthracis, UniProt A0A6H3AEB6)
WalR = WalR (Bacillus anthracis, UniProt A0A2P0HLU7)
Chain of WalR (A0A2P0HLU7 1-235): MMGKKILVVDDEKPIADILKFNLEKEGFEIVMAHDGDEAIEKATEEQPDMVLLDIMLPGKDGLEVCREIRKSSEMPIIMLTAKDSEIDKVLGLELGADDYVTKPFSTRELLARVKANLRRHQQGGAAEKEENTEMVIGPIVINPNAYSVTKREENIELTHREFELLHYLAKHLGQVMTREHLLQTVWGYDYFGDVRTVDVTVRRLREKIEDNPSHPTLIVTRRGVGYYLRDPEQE

Chain of WalKc (A0A6H3AEB6 210-613 limits assumed): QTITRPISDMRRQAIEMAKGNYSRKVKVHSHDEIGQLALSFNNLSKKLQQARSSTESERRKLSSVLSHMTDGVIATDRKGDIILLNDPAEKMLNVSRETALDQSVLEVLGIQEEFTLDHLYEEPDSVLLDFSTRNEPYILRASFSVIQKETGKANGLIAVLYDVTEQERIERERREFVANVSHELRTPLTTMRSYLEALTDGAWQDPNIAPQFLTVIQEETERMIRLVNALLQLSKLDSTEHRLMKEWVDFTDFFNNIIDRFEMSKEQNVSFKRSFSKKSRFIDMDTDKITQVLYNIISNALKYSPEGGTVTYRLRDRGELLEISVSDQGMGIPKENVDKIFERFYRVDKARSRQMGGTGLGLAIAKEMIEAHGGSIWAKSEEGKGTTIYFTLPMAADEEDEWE
Chain of WalKc(H) (A0A6H3AEB6 380-613 limits assumed): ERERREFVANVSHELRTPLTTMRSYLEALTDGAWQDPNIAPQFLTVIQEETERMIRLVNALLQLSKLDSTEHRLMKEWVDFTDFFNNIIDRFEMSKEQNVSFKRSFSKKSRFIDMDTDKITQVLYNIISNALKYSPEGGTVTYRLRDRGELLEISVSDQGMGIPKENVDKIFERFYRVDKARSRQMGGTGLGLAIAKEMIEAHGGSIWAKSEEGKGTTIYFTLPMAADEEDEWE
Chain of WalKc(PH) (A0A6H3AEB6 263-613 limits assumed): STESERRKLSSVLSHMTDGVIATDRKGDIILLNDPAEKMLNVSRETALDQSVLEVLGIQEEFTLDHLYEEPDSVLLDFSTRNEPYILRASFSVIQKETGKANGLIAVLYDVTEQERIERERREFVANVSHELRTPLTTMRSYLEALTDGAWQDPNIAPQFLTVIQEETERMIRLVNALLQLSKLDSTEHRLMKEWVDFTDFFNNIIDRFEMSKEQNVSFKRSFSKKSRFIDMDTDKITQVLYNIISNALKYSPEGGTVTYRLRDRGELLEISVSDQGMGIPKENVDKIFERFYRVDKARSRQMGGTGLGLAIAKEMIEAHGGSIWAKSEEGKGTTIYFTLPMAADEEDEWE

Nc1ncnc2c1ncn2[C@@H]1O[C@H](COP(=O)(O)OP(=O)(O)OP(=O)(O)O)[C@@H](O)[C@H]1O [ATP]
autophosphorylation, 32P SDS-PAGE autoradiography (WalKc(PH)): Both, WalKc(PH) and WalKc(H), appeared to be more efficient than WalKc in autophosphorylation
autophosphorylation, 32P SDS-PAGE autoradiography (WalKc(H)): Both, WalKc(PH) and WalKc(H), appeared to be more efficient than WalKc in autophosphorylation
autophosphorylation, 32P SDS-PAGE autoradiography (WalKc): When WalKc was incubated with labeled ATP mixture, autophosphorylation could be detected

NC(=O)OP(=O)(O)O [carbamoyl phosphate]
phosphorylation of WalR, native PAGE with coomassie staining (WalR): Carbamoyl phosphate mediated phosphorylation of WalR was also found to be inefficient
